For series [1] the following is noted: vendor product list; cited from earlier work.
Series [2] concerns the target DNase, a nuclease isolated from bovine pancreas (Bos taurus, UniProt P00639). Particulars: for DNase enzymatic activity: 100 μM EDTA.
Series [3] in a line: pH-dependency of the binding constants of chelating agents. The conditions noted are these: worked out from known pK values from literature (FIG. 1). Format: physicochemical. Here is the method: Tris buffer is routinely used in PCR buffers. At room temperature the pH of a Tris based PCR buffer is 8.7. […] This means that at 95° C. the pH value is 6.6. In order to select a chelating agent for PCR experiments, the pH-dependency of the binding constants of three different chelating agents, NTA; EDTA and EGTA, was investigated. Known pK values from literature for every chelating agent were used to determine the pH dependency of the complex formation (FIG. 1).

For the next series, the target named is Taq (Thermus aquaticus, UniProt P19821). Nature of the series: Endpoint PCR (HugI, 1.2 kb genomic target) with and without EGTA, agarose gel. Format: biochemical. The conditions noted are these: 5 mM EGTA, 5-10 mM Mg, compared to reactions without EGTA. The procedure: An amplification experiment was performed using a test system that is known to be prone to produce non-specific side products. A genomic DNA sequence of 1.2 kb was the target sequence. Primers HugA and HugB were used.
Taq, sequence (P19821 whole entry): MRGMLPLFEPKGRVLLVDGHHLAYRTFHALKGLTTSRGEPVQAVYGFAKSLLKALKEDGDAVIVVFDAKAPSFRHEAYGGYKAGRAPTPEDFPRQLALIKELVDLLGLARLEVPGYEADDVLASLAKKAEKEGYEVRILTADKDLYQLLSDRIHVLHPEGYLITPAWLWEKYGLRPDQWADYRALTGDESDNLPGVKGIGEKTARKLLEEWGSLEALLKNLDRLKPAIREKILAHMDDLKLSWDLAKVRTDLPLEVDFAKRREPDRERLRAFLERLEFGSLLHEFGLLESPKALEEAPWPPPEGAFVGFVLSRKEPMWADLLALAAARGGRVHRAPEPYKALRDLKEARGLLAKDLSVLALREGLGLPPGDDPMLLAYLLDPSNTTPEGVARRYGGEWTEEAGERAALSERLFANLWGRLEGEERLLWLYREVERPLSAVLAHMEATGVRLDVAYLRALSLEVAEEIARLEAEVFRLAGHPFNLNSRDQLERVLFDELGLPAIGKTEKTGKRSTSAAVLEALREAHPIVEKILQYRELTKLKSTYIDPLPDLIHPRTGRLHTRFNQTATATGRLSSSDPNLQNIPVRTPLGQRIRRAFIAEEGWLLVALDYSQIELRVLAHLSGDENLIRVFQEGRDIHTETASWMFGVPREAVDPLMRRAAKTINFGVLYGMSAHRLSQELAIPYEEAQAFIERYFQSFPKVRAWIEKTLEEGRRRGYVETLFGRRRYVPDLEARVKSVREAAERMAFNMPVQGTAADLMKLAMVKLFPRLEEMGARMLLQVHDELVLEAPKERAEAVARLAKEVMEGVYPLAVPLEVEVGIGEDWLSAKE
Reactions with and without EGTA were performed in parallel. In set A, the magnesium concentration was varied in 1 mM steps, start and end point were 5 and 10 mM respectively. In set B, the start point was 0.5 mM and the end point was 4 mM Mg. The setup is described in Table 2.
The amplification program was as follows (Table 3):
35 cycles were performed.

The target of series [4] is T1, chemically inactivated Taq DNA polymerase (Thermus aquaticus, UniProt P19821). Nature of the series: Amplification of bisulphite-treated DNA in the presence of EGTA and different magnesium concentrations. The conditions noted are these: for Ct / Ct Average: 5 mM EGTA. Format: biochemical. Here is the method: In the follow-up experiment said primers and said bisulphite-treated DNA were used in amplification reactions wherein the magnesium dependency was analyzed.
T1 sequence (P19821 whole entry): as above
The final concentration of EGTA was 5 mM. The HRM master mix was supplemented with 0.1 0.6 mM magnesium.
Two sets of reactions consisting of duplicates were used in the amplification experiment. One set of samples was incubated on ice for 120 min, whereas the other set of samples was incubated at room temperature for 120 min. Subsequently the samples were analyzed using the Rotor-Gene Q 5plex HRM System.

The target in series [5] is T1, chemically inactivated Taq DNA polymerase. The series is described as follows: Amplification of bisulphite-treated DNA in the presence of different EGTA concentrations (residual activity of chemically inactivated Taq, Ct and HRM melting curves). It is filed as biochemical. The source says: The following experiments employed a system to detect the formation of primer dimers in a PCR reaction mixture using residual active Taq polymerase molecules. Herein, bisulphite-treated DNA is used as a template. As a consequence of the bisulphite treatment, which entails the chemical modification of non-methylated cytosines to uracil), said template only consists of three bases. Since bisulphite treatment only works when using single stranded DNA, the majority of DNA after completion of said bisulphite treatment is single stranded. Primers that are used for amplification of such DNA sequences are characterized by reduced complexity since they only consist of three bases.
Genomic DNA was propagated using the Qiagen REPLI g Midi Kit according to the manufacturer's protocol. Subsequently, 1 μg of said genomic DNA was used in 10 independent reactions wherein the DNA was subjected to bisulphite treatment using the EpiTect Bisulfite Kit followed by purification. The resulting DNA of each reaction was pooled and used in the subsequent amplification reactions.
The final EGTA concentration was between 0.25 and 10 mM.
One set of samples consisting of two reactions was incubated on ice for 120 min, whereas the other set of samples also consisting of two reactions was incubated at room temperature for 120 min. Subsequently both sets of samples were analyzed using the Rotor-Gene Q 5plex HRM System.

For series [6] the following is noted: for pH of Tris based PCR buffer: room temperature.
Setting [7] is: 0 mM MgCl2 added, on ice 120 min.
Where [8] appears, read: 0 mM MgCl2 added, room temperature 120 min.
Setting [9] is: 0.1 mM MgCl2, room temperature 120 min.
[10] abbreviates: 0.2 mM MgCl2, room temperature 120 min.
[11] abbreviates: 0.3 mM MgCl2, room temperature 120 min.
[12] abbreviates: 0.4 mM MgCl2, room temperature 120 min.
The mark [13] stands for this setting: 0.5 mM MgCl2, room temperature 120 min.
[14] abbreviates: 0.6 mM MgCl2, room temperature 120 min.
The mark [15] stands for this setting: 0.25 mM EGTA, room temperature 120 min.
Setting [16] is: 0.5 mM EGTA, room temperature 120 min.
The mark [17] stands for this setting: 0.75 mM EGTA, room temperature 120 min.
The mark [18] stands for this setting: 1 mM EGTA, room temperature 120 min.
Where [19] appears, read: 1.5 mM EGTA, room temperature 120 min.
Where [20] appears, read: 2 mM EGTA, room temperature 120 min.
Setting [21] is: 4 mM EGTA, room temperature 120 min.
Where [22] appears, read: 10 mM EGTA, room temperature 120 min.

Where “and” joins values, the source holds several entries; their conditions need not be identical. Equal entries are not always repeated. Entries after “also recorded” stand apart in the source; their conditions may differ. Structures can show the parent of a compound that is named as a salt. Where two headings read alike, the source gives them in different places.

DNase, a nuclease isolated from bovine pancreas, sequence (P00639 23-282): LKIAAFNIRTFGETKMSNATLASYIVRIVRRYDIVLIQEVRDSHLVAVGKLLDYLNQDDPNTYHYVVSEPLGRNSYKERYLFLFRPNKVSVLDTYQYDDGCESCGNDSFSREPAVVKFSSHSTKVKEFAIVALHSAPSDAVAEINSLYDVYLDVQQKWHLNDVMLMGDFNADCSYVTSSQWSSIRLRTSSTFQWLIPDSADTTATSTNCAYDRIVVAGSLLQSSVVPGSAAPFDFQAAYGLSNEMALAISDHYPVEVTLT

By pKa is commonly meant the negative logarithm of the acid dissociation constant. As for `NC(=O)CNCCS(=O)(=O)O` [Buffer 1, ACES], the pKa in series [1] was 6.80.
As for `O=S(=O)(O)CCN(CCO)CCO` [Buffer 2, BES], the pKa in series [1] is reported as 7.10.
Take `OCC(CO)(CO)NCCCNC(CO)(CO)CO` [Buffer 4, BIS-TRIS propane]: the pKa in series [1] is given as 6.80.
Regarding `O=S(=O)(O)CCCN1CCN(CCO)CC1` [Buffer 5, EPPS], the pKa in series [1] was 8.00.
Take `O=S(=O)(O)CCN1CCN(CCO)CC1` [Buffer 7, HEPES]: in series [1], the pKa is recorded as 7.50.
Turning to `O=S(=O)(O)CCN1CCN(CCO)CC1` [Buffer 8, HEPES sodium salt], in series [1], the pKa is given as 7.50.
With `O=S(=O)(O)CCN1CCN(CCS(=O)(=O)O)CC1` [Buffer 17, PIPES], the pKa in series [1] was 6.80.
Consider `O=S(=O)(O)CCCNC(CO)(CO)CO` [Buffer 22, TAPS], for which the pKa in series [1] is 8.40.
For `O=S(=O)([O-])CCCNC(CO)(CO)CO.[Na+]` [Buffer 23, TAPS sodium salt], the pKa in series [1] is listed as 8.40.
With `O=S(=O)(O)CCNC(CO)(CO)CO` [Buffer 24, TES], the pKa in series [1] is recorded as 7.50.
For `O=C(O)CN(CCN(CC(=O)O)CC(=O)O)CC(=O)O` [EDTA, ethylene di amine tetra acetic acid], the DNase enzymatic activity entry in series [2] (42° C.) was “restoring enzymatic activity”; in series [2] (on ice, 1, 0.5, 0.1 U DNase), “largely reduced enzymatic activity”.
Consider `O=C(O)CN(CCOCCOCCN(CC(=O)O)CC(=O)O)CC(=O)O` [EGTA, ethylene glycol bis(amino ethyl) N, N′-tetra acetic acid], for which, in series [2] (100 μM EGTA, 42° C.), the DNase activity entry is given as “largely restored DNase activity”. Moreover, the “DNA degradation by DNase” value in series [2] (100 μM EGTA, on ice, 0.01, 0.1 and 1 U DNase, 5 and 15 min) was “almost complete inhibition of degradation”; in series [2] (100 μM EGTA, on ice, 1 U DNase for 15 min, compared to the sample without EGTA) it was “degradation is significantly reduced”. Moreover, the “correlation between pH value and binding constant” value in series [3] is “strong correlation between pH value and binding constant”. Also, the “specificity of PCR (side products on agarose gel)” value on Taq is reported as “more specific as of having less side products; also recorded: results in specific PCR product”. For the same compound, the Ct is 28.74 and 28.89 in series [4] (setting [7]); 28.86 and 28.67 in series [4] (setting [8]); 27.82 and 27.79 in series [4] (0.1 mM MgCl2, on ice 120 min); 27.53 and 27.71 in series [4] (setting [9]); 26.85 and 27.39 in series [4] (0.2 mM MgCl2, on ice 120 min); 26.69 and 27.27 in series [4] (setting [10]). The Ct is 26.25 and 26.51 in series [4] (0.3 mM MgCl2, on ice 120 min); 26.14 and 26.64 in series [4] (setting [11]); 26.01 and 26.14 in series [4] (0.4 mM MgCl2, on ice 120 min); 26.06 and 26.24 in series [4] (setting [12]); 25.81 and 25.89 in series [4] (0.5 mM MgCl2, on ice 120 min); 25.82 and 25.86 in series [4] (setting [13]). The Ct is 25.61 and 25.56 in series [4] (0.6 mM MgCl2, on ice 120 min); 25.55 and 25.49 in series [4] (setting [14]); 25.34 and 25.51 in series [5] (0.25 mM EGTA, on ice 120 min); 25.2 and 25.42 in series [5] (setting [15]); 25.53 and 25.62 in series [5] (0.5 mM EGTA, on ice 120 min); 25.55 and 25.47 in series [5] (setting [16]). In addition, the Ct is 25.78 and 25.88 in series [5] (0.75 mM EGTA, on ice 120 min); 25.91 and 25.8 in series [5] (setting [17]); 26.59 and 26.61 in series [5] (1 mM EGTA, on ice 120 min); 26.47 and 26.5 in series [5] (setting [18]); 28.17 and 28.21 in series [5] (1.5 mM EGTA, on ice 120 min); 27.76 and 27.88 in series [5] (setting [19]). For the same compound, the Ct in series [5] (2 mM EGTA, on ice 120 min) is 30.16 and 28.53; in series [5] (setting [20]) it was 29.9 and 29.71; in series [5] (4 mM EGTA, on ice 120 min), 38.37 and 38.14; in series [5] (setting [21]), 37.32 and 37.02; in series [5] (setting [22]) it was 35.18 and 34. The “Ct Average” value in series [4] (setting [7]) was 28.82; in series [4] (setting [8]), 28.77; in series [4] (0.1 mM MgCl2, on ice 120 min), 27.81; in series [4] (setting [9]), 27.62; in series [4] (0.2 mM MgCl2, on ice 120 min), 27.12; in series [4] (setting [10]), 26.98. Besides, the “Ct Average” value in series [4] (0.3 mM MgCl2, on ice 120 min) was 26.38; in series [4] (setting [11]), 26.39; in series [4] (0.4 mM MgCl2, on ice 120 min), 26.08; in series [4] (setting [12]) it was 26.15; in series [4] (0.5 mM MgCl2, on ice 120 min), 25.85; in series [4] (setting [13]), 25.84. Moreover, the “Ct Average” value is recorded as 25.59 in series [4] (0.6 mM MgCl2, on ice 120 min); 25.52 in series [4] (setting [14]); 25.43 in series [5] (0.25 mM EGTA, on ice 120 min); 25.31 in series [5] (setting [15]); 25.58 in series [5] (0.5 mM EGTA, on ice 120 min); 25.51 in series [5] (setting [16]). Moreover, the “Ct Average” value in series [5] (0.75 mM EGTA, on ice 120 min) was found to be 25.83; in series [5] (setting [17]), 25.86; in series [5] (1 mM EGTA, on ice 120 min), 26.55; in series [5] (setting [18]) it was 26.49; in series [5] (1.5 mM EGTA, on ice 120 min), 28.19; in series [5] (setting [19]), 27.82. The “Ct Average” value is given as 29.35 in series [5] (2 mM EGTA, on ice 120 min); 29.81 in series [5] (setting [20]); 38.26 in series [5] (4 mM EGTA, on ice 120 min); 37.13 in series [5] (setting [21]); 34.59 in series [5] (setting [22]). Besides, the specificity of amplification result in series [4] (EGTA up to a final concentration of 5 mM) was “increased specificity”. Further, in series [5] (EGTA concentrations exceeded 2 mM), the success of amplification result was “successful amplification was prevented”. In series [5] (EGTA up to a final concentration of 0.75 mM), the “specificity of amplification and effect on Ct” value was “increase of specificity without affecting the Ct values”.
As to `NC(CO)(CO)CO` [Tris], the “pH of Tris buffer” value in series [6] (95° C.) stood at 6.6. The “pH of Tris based PCR buffer” value in series [6] is on record as 8.7; in series [6] (listed as Tris buffer), “around 8.7”.

These data come from patent publication US11519025B2, “Cation chelator hot start” (priority 2014, dated 2022).
